According to US8772288B2, “Substituted spiro[cycloalkyl-1,3′-indo]-2′(1′H)-one derivatives and their use as P38 mitogen-activated kinase inhibitors” (Almirall, S.A., priority 2008, dated 2014):

Biological target: human p38alfa (SAPKa) enzyme (Homo sapiens (Human), UniProt Q16539)
Test: Inhibition Assay: p38 enzymatic activity (ATF2 phosphorylation, FRET)
Assay type: biochemical
Details: read-out: p38α IC50

Chain of human p38alfa (SAPKa) enzyme (Q16539 whole entry): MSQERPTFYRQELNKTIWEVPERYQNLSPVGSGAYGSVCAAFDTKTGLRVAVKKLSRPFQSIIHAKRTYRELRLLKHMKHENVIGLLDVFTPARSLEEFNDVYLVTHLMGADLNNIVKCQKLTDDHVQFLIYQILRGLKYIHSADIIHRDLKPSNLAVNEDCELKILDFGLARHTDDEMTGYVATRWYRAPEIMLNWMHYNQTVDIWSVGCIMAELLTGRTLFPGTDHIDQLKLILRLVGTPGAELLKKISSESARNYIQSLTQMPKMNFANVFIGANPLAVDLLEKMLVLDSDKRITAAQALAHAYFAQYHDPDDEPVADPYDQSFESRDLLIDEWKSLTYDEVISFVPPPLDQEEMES

IC50 [nM]	Compound
27	Cc1ccc(C(=O)NCC2CC2)cc1-c1ccc2c(c1)NC(=O)C2(C)C [Example 18, N-(Cyclopropylmethyl)-3-(3,3-dimethyl-2-oxoindolin-6-yl)-4-methylbenzamide]
0.06	Cc1ccc(C(=O)Nc2ccon2)cc1-c1ccc2c(c1)NC(=O)C21CCOCC1 [Example 23, N-Isoxazol-3-yl-4-methyl-3-(2-oxo-1,2,2′,3′,5′,6′-hexahydrospiro[indole-3,4′-pyran]-6-yl)benzamide]
6.7	Cc1ccc(C(=O)NC2CC2)cc1-c1ccc2c(c1)NC(=O)C21CCS(=O)(=O)CC1 [Example 27, N-Cyclopropyl-3-(1′,1′-dioxido-2-oxo-1,2,2′,3′,5′,6′-hexahydrospiro[indole-3,4′-thiopyran]-6-yl)-4-methylbenzamide]
0.8	Cc1ccc(C(=O)NC2CC2)cc1-c1ccc2c(c1)NC(=O)C21CCC(C)(O)CC1 (stereo not drawn) [Example 37, N-cyclopropyl-3-(4-hydroxy-4-methyl-2′-oxospiro[cyclohexane-1,3′-indoline]-6′-yl)-4-methylbenzamide]
1	Cc1ccc(C(=O)NC2CC2)cc1-c1ccc2c(c1)NC(=O)C21CCC(N2CCOCC2)CC1 (stereo not drawn) [Example 40, N-cyclopropyl-4-methyl-3-(4-morpholino-2′-oxospiro[cyclohexane-1,3′-indoline]-6′-yl)benzamide]
62	Cc1ccc(C(=O)NC2CC2)cc1-c1cnc2c(c1)NC(=O)C2(C)C [Example 45, N-Cyclopropyl-3-(3,3-dimethyl-2-oxo-2,3-dihydro-1H-pyrrolo[3,2-b]pyridin-6-yl)-4-methylbenzamide]
0.8	Cc1ccc(C(=O)NC2CC2)cc1-c1cc2c(cn1)C1(CCCC1)C(=O)N2 [Example 51, N-Cyclopropyl-4-methyl-3-(2′-oxo-1′,2′-dihydrospiro[cyclopentane-1,3′-pyrrolo[3,2-c]pyridin]-6′-yl)benzamide]
8	Cc1nnc(-c2cc(F)c(C)c(-c3ccc4c(c3)NC(=O)C43CCOCC3)c2)[nH]1 [Example 61, 6-[3-Fluoro-2-methyl-5-(5-methyl-4H-1,2,4-triazol-3-yl)phenyl]-2′,3′,5′,6′-tetrahydro-spiro[indole-3,4′-pyran]-2(1H)-one]
8	Cc1nnc(-c2cc(F)c(C)c(-c3ccc4c(c3)NC(=O)C43CCC(C)(O)CC3)c2)[nH]1 (stereo not drawn) [Example 65, 6′-(3-fluoro-2-methyl-5-(5-methyl-4H-1,2,4-triazol-3-yl)phenyl)-4-hydroxy-4-methylspiro[cyclohexane-1,3′-indolin]-2′-one]
5.7	Cc1nnc(-c2ccc(C)c(-c3ccc4c(c3)NC(=O)C43CCC(O)CC3)c2)o1 (stereo not drawn) [Example 73, 4-hydroxy-6′-(2-methyl-5-(5-methyl-1,3,4-oxadiazol-2-yl)phenyl)spiro[cyclohexane-1,3′-indolin]-2′-one]

Second part, the compound before the results:

Compound	IC50 [nM]
Cc1ccc(C(N)=O)cc1-c1ccc2c(c1)NC(=O)C2(C)C [Example 7, 3-(3,3-dimethyl-2-oxoindolin-6-yl)-4-methylbenzamide]	80
Cc1ccc(C(=O)Nc2ccon2)cc1-c1ccc2c(c1)NC(=O)C2(C)C [Example 19, 3-(3,3-Dimethyl-2-oxo-2,3-dihydro-1H-indol-6-yl)-N-isoxazol-3-yl-4-methylbenzamide]	0.04
Cc1ccc(C(=O)NC2CC2)cc1-c1ccc2c(c1)NC(=O)C21CCOCC1 [Example 22, N-Cyclopropyl-4-methyl-3-(2-oxo-2′,3′,5′,6′-tetrahydrospiro[indoline-3,4′-pyran]-6-yl)benzamide]	1.4
Cc1c(F)cc(C(=O)NC2CC2)cc1-c1ccc2c(c1)NC(=O)C21CCN(S(C)(=O)=O)CC1 [Example 31, N-cyclopropyl-3-fluoro-4-methyl-5-(1′-(methylsulfonyl)-2-oxospiro[indoline-3,4′-piperidine]-6-yl)benzamide]	1
Cc1ccc(C(=O)NC2CC2)cc1-c1ccc2c(c1)NC(=O)C21CCC(F)(F)CC1 [Example 32, N-Cyclopropyl-3-(4,4-difluoro-2′-oxospiro[cyclohexane-1,3′-indoline]-6′-yl)-4-methylbenzamide]	1.8
Cc1ccc(C(=O)NC2CC2)cc1-c1ccc2c(c1)NC(=O)C21CCC(O)CC1 (stereo not drawn) [Example 34, N-cyclopropyl-3-(4-hydroxy-2′-oxospiro[cyclohexane-1,3′-indoline]-6′-yl)-4-methylbenzamide]	1.4
Cc1ccc(C(=O)NC2CC2)cc1-c1ccc2c(n1)NC(=O)C21CCCC1 [Example 43, N-Cyclopropyl-4-methyl-3-(2′-oxo-1′,2′-dihydrospiro[cyclopentane-1,3′-pyrrolo[2,3-b]pyridine]-6′-yl)benzamide]	5.6
Cc1ccc(C(=O)NC2CC2)cc1-c1cnc2c(c1)NC(=O)C21CCOCC1 [Example 47, N-Cyclopropyl-4-methyl-3-(2′-oxo-1′,2,2′,3,5,6-hexahydrospiro[pyran-4,3′-pyrrolo-[3,2-b]pyridin]-6′-yl)benzamide]	13
Cc1ccc(C(=O)NC2CC2)cc1-c1ncc2c(n1)NC(=O)C21CCCC1 [Example 52, N-Cyclopropyl-4-methyl-3-(6′-oxo-6′,7′-dihydrospiro[cyclopentane-1,5′-pyrrolo[2,3-c]pyrimidin]-2′-yl)benzamide]	72
Cc1nnc(-c2ccc(C)c(-c3ccc4c(c3)NC(=O)C43CCCC3)c2)[nH]1 [Example 53, 6′-(2-Methyl-5-(5-methyl-4H-1,2,4-triazol-3-yl)phenyl)spiro[cyclopentane-1,3′-indolin]-2′-one]	7.5
Cc1nnc(-c2ccc(C)c(-c3ccc4c(c3)NC(=O)C43CCC3)c2)[nH]1 [Example 54, 6′-[2-Methyl-5-(5-methyl-4H-1,2,4-triazol-3-yl)phenyl]spiro[cyclobutane-1,3′-indol]-2′(1′H)-one]	18
Cc1ccc(-c2ncn[nH]2)cc1-c1ccc2c(c1)NC(=O)C21CCCC1 [Example 55, 6′-(2-Methyl-5-(4H-1,2,4-triazol-3-yl)phenyl)spiro[cyclopentane-1,3′-indolin]-2′-one]	9
Cc1nnc(-c2ccc(C)c(-c3ccc4c(c3)NC(=O)C43CCOCC3)c2)[nH]1 [Example 59, 6-(2-Methyl-5-(5-methyl-4H-1,2,4-triazol-3-yl)phenyl)-2′,3′,5′,6′-tetrahydrospiro[indoline-3,4′-pyran]-2-one]	10
Cc1nnc(-c2ccc(C)c(-c3ccc4c(c3)NC(=O)C43CCC(F)(F)CC3)c2)[nH]1 [Example 63, 4,4-Difluoro-6′-(2-methyl-5-(5-methyl-4H-1,2,4-triazol-3-yl)phenyl)spiro[cyclohexane-1,3′-indolin]-2′-one]	2
Cc1nnc(-c2ccc(C)c(-c3ccc4c(c3)NC(=O)C43CCN(S(C)(=O)=O)CC3)c2)[nH]1 [Example 67, 6-(2-methyl-5-(5-methyl-4H-1,2,4-triazol-3-yl)phenyl)-1′-(methylsulfonyl)spiro[indoline-3,4′-piperidin]-2-one]	4.7
Cc1nnc(-c2ccc(C)c(-c3ccc4c(c3)NC(=O)C43CCCC3)c2)o1 [Example 70, 6′-(2-Methyl-5-(5-methyl-1,3,4-oxadiazol-2-yl)phenyl)spiro[cyclopentane-1,3′-indolin]-2′-one]	32
Cc1nnc(-c2ccc(C)c(-c3ccc4c(c3)NC(=O)C43CCC(F)(F)CC3)c2)o1 [Example 72, 4,4-Difluoro-6′-(2-methyl-5-(5-methyl-1,3,4-oxadiazol-2-yl)phenyl)spiro-[cyclohexane-1,3′-indolin]-2′-one]	5.6
